Source: PubChem BioAssay (NCI)
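Where inhibition never reached the appropriate level, the endpoint shown equals the highest concentration tested. Otherwise, values were interpolated linearly from a five-concentration, 48-hour dose response in 96-well plates. TGI: concentration producing complete growth inhibition.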

Key:
Assay in all cases: DTP human tumour cell line panel, 48 h
T-47D breast = tested on: T-47D breast
NCI-H226 lung = tested on: NCI-H226 lung
TK-10 renal = tested on: TK-10 renal
NCI-H23 lung = tested on: NCI-H23 lung
SK-MEL-2 melanoma = tested on: SK-MEL-2 melanoma
CAKI-1 renal = tested on: CAKI-1 renal
K-562 leukemia = tested on: K-562 leukemia
SF-295 CNS = tested on: SF-295 CNS
RXF 393 renal = tested on: RXF 393 renal
A549 NSCLC = tested on: A549 NSCLC
HCT-116 colon = tested on: HCT-116 colon
ACHN renal = tested on: ACHN renal
EKVX NSCLC = tested on: EKVX NSCLC
SF-539 CNS = tested on: SF-539 CNS
NCI-H522 lung = tested on: NCI-H522 lung
UO-31 renal = tested on: UO-31 renal
OVCAR-5 ovarian = tested on: OVCAR-5 ovarian
LOX IMVI melanoma = tested on: LOX IMVI melanoma
MOLT-4 leukemia = tested on: MOLT-4 leukemia
SW-620 colon = tested on: SW-620 colon
A498 renal = tested on: A498 renal
OVCAR-3 ovarian = tested on: OVCAR-3 ovarian
HS 578T breast = tested on: HS 578T breast
HOP-92 NSCLC = tested on: HOP-92 NSCLC
NCI-H460 lung = tested on: NCI-H460 lung
MDA-N = tested on: MDA-N
SK-MEL-5 melanoma = tested on: SK-MEL-5 melanoma
HOP-62 NSCLC = tested on: HOP-62 NSCLC
IGROV1 ovarian = tested on: IGROV1 ovarian
UACC-62 melanoma = tested on: UACC-62 melanoma
U251 CNS = tested on: U251 CNS
KM12 colon = tested on: KM12 colon
MCF7 breast = tested on: MCF7 breast
M14 melanoma = tested on: M14 melanoma
SF-268 CNS = tested on: SF-268 CNS
SK-MEL-28 melanoma = tested on: SK-MEL-28 melanoma
UACC-257 melanoma = tested on: UACC-257 melanoma
OVCAR-8 ovarian = tested on: OVCAR-8 ovarian
HCT-15 colon = tested on: HCT-15 colon
SNB-19 CNS = tested on: SNB-19 CNS
SN12C renal = tested on: SN12C renal
COLO 205 colon = tested on: COLO 205 colon
SNB-75 CNS = tested on: SNB-75 CNS
MALME-3M melanoma = tested on: MALME-3M melanoma
BT-549 breast = tested on: BT-549 breast
MDA-MB-231 breast = tested on: MDA-MB-231 breast
786-0 renal = tested on: 786-0 renal
PC-3 prostate = tested on: PC-3 prostate
SR leukemia = tested on: SR leukemia
HL-60(TB) leukemia = tested on: HL-60(TB) leukemia
MDA-MB-435 = tested on: MDA-MB-435
DU-145 prostate = tested on: DU-145 prostate
HT29 colon = tested on: HT29 colon
NCI/ADR-RES ovarian = tested on: NCI/ADR-RES ovarian
SK-OV-3 ovarian = tested on: SK-OV-3 ovarian
RPMI-8226 leukemia = tested on: RPMI-8226 leukemia
HCC-2998 colon = tested on: HCC-2998 colon
CCRF-CEM leukemia = tested on: CCRF-CEM leukemia
OVCAR-4 ovarian = tested on: OVCAR-4 ovarian

Measured: TGI

COc1cc(CSc2ccc(O)cc2)cc(OC)c1OC
67 µM: SK-MEL-2 melanoma
66.6 µM: MCF7 breast
52 µM: UO-31 renal
55.5 µM: T-47D breast
66.1 µM: RPMI-8226 leukemia
34.9 µM: SK-MEL-5 melanoma
95 µM: SF-295 CNS
86.2 µM: SNB-75 CNS
71.3 µM: HOP-92 NSCLC
83.6 µM: NCI/ADR-RES ovarian
48.3 µM: BT-549 breast
not listed: HCC-2998 colon | CCRF-CEM leukemia | OVCAR-4 ovarian
> 100 µM: all other assays above

N#CC1(C#N)NC(c2ccccc2)C(C#N)(C#N)NC1c1ccccc1 (configuration not stated)
not listed: SR leukemia
> 100 µM: all other assays above

Oc1ccc([C@H]2c3c(O)cc(O)cc3C3c4c(cc(O)cc4[C@@H]2[C@H]2c4cc(O)cc5c4C(c4cc(O)cc(O)c4[C@@H]2c2ccc(O)cc2)[C@@H](c2ccc(O)cc2)O5)O[C@@H]3c2ccc(O)cc2)cc1 (some centres not stated)
0.428 µM: RXF 393 renal
8.53 µM: OVCAR-4 ovarian
50 µM: SR leukemia
0.972 µM: SK-MEL-28 melanoma
5.33 µM: SF-539 CNS
8.15 µM: COLO 205 colon
not listed: UO-31 renal | SW-620 colon | A498 renal | HOP-92 NSCLC | SK-OV-3 ovarian | HCC-2998 colon
> 100 µM: all other assays above
